Laboratory results as given in the supplement of paper PMC10307832.

What was measured:
Test in all cases: relative viability (nuclei count vs DMSO), 5 days (fraction); higher = more cells survive
NCI-H3122 = tested on: NCI-H3122
Summary of the method: (§1)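 Each reported value is a median over duplicate plates. It expresses relative viability: treated-well nuclei count divided by vehicle-well nuclei count. Lung cancer cell lines in 1536-well plates were dosed by pin tool a day after seeding, alone with one drug or with a fixed anchor-drug dose plus five library-drug doses (not always all listed) in √10 steps, and nuclei were counted after 5 days.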

NCI-H596 = tested on: NCI-H596
Summary of the method: as §1

PC-3 [JPC-3] = tested on: PC-3 [JPC-3]
Summary of the method: as §1

HARA = tested on: HARA
Summary of the method: as §1

LK-2 = tested on: LK-2
Summary of the method: as §1

NCI-H2228 = tested on: NCI-H2228
Summary of the method: as §1

A-427 = tested on: A-427
Summary of the method: as §1

SK-MES-1 = tested on: SK-MES-1
Summary of the method: as §1

HOP-62 = tested on: HOP-62
Summary of the method: as §1

LXF-289 = tested on: LXF-289
Summary of the method: as §1

SW 900 = tested on: SW 900
Summary of the method: as §1

NCI-H522 = tested on: NCI-H522
Summary of the method: as §1

NCI-H1993 = tested on: NCI-H1993
Summary of the method: as §1

NCI-H322M = tested on: NCI-H322M
Summary of the method: as §1

EMC-BAC-2 = tested on: EMC-BAC-2
Summary of the method: as §1

NCI-H1944 = tested on: NCI-H1944
Summary of the method: as §1

NCI-H727 = tested on: NCI-H727
Summary of the method: as §1

NCI-H2009 = tested on: NCI-H2009
Summary of the method: as §1

NCI-H2170 = tested on: NCI-H2170
Summary of the method: as §1

SW 1573 = tested on: SW 1573
Summary of the method: as §1

ABC-1 = tested on: ABC-1
Summary of the method: as §1

NCI-H1792 = tested on: NCI-H1792
Summary of the method: as §1

Work on `Cc1sc2c(c1C)C(c1ccc(Cl)cc1)=N[C@@H](CC(=O)OC(C)(C)C)c1nnc(C)n1-2` [JQ1] + O=C(c1cc(Cc2n[nH]c(=O)c3ccccc23)ccc1F)N1CCN(C(=O)C2CC2)CC1 [Olaparib] (partner 8 µM) yielded a relative viability (NCI-H3122; first compound 0.04 µM) of 0.558, a relative viability (NCI-H3122; first compound 0.1265 µM) of 0.586 and a relative viability (NCI-H3122; first compound 0.4 µM) of 0.494. For the same molecule, the relative viability (NCI-H3122; first compound 1.265 µM) was 0.485, the relative viability (NCI-H3122; first compound 4 µM) was 0.276 and the relative viability (NCI-H596; first compound 0.04 µM) was 0.618. It also gave a relative viability (NCI-H596; first compound 0.1265 µM) of 0.499, a relative viability (NCI-H596; first compound 0.4 µM) of 0.367 and a relative viability (NCI-H596; first compound 1.265 µM) of 0.326. The relative viability (NCI-H596; first compound 4 µM) was 0.321, the relative viability (PC-3 [JPC-3]; first compound 0.04 µM) was 1.1 and the relative viability (PC-3 [JPC-3]; first compound 0.1265 µM) was 0.992. For the same molecule, the relative viability (PC-3 [JPC-3]; first compound 0.4 µM) was 1.05, the relative viability (PC-3 [JPC-3]; first compound 1.265 µM) was 0.66 and the relative viability (PC-3 [JPC-3]; first compound 4 µM) was 0.385. The relative viability (HARA; first compound 0.04 µM) was 0.739, the relative viability (HARA; first compound 0.1265 µM) was 0.484 and the relative viability (HARA; first compound 0.4 µM) was 0.321. It also gave a relative viability (HARA; first compound 1.265 µM) of 0.308, a relative viability (HARA; first compound 4 µM) of 0.18 and a relative viability (LK-2; first compound 0.04 µM) of 0.639. For the same molecule, the relative viability (LK-2; first compound 0.1265 µM) was 0.74, the relative viability (LK-2; first compound 0.4 µM) was 0.409 and the relative viability (LK-2; first compound 1.265 µM) was 0.155. The relative viability (LK-2; first compound 4 µM) was 0.15, the relative viability (NCI-H2228; first compound 0.04 µM) was 0.628 and the relative viability (NCI-H2228; first compound 0.1265 µM) was 0.434. The relative viability (NCI-H2228; first compound 0.4 µM) was 0.356, the relative viability (NCI-H2228; first compound 1.265 µM) was 0.123 and the relative viability (NCI-H2228; first compound 4 µM) was 0.181. It also gave a relative viability (A-427; first compound 0.04 µM) of 0.693, a relative viability (A-427; first compound 0.1265 µM) of 0.72 and a relative viability (A-427; first compound 0.4 µM) of 0.83. For the same molecule, the relative viability (A-427; first compound 1.265 µM) was 0.709, the relative viability (A-427; first compound 4 µM) was 0.418 and the relative viability (SK-MES-1; first compound 0.04 µM) was 0.671. For the same molecule, the relative viability (SK-MES-1; first compound 0.1265 µM) was 0.606, the relative viability (SK-MES-1; first compound 0.4 µM) was 0.385 and the relative viability (SK-MES-1; first compound 1.265 µM) was 0.208. It also gave a relative viability (SK-MES-1; first compound 4 µM) of 0.209, a relative viability (HOP-62; first compound 0.04 µM) of 0.306 and a relative viability (HOP-62; first compound 0.1265 µM) of 0.285. It also gave a relative viability (HOP-62; first compound 0.4 µM) of 0.18, a relative viability (HOP-62; first compound 1.265 µM) of 0.114 and a relative viability (HOP-62; first compound 4 µM) of 0.115. For the same molecule, the relative viability (LXF-289; first compound 0.04 µM) was 0.99, the relative viability (LXF-289; first compound 0.1265 µM) was 1.06 and the relative viability (LXF-289; first compound 0.4 µM) was 0.744. The relative viability (LXF-289; first compound 1.265 µM) was 0.47, the relative viability (LXF-289; first compound 4 µM) was 0.258 and the relative viability (SW 900; first compound 0.04 µM) was 0.862. The relative viability (SW 900; first compound 0.1265 µM) was 0.739, the relative viability (SW 900; first compound 0.4 µM) was 0.479 and the relative viability (SW 900; first compound 1.265 µM) was 0.303. The relative viability (SW 900; first compound 4 µM) was 0.22, the relative viability (NCI-H522; first compound 0.04 µM) was 0.577 and the relative viability (NCI-H522; first compound 0.1265 µM) was 0.674. For the same molecule, the relative viability (NCI-H522; first compound 0.4 µM) was 0.453, the relative viability (NCI-H522; first compound 1.265 µM) was 0.388 and the relative viability (NCI-H522; first compound 4 µM) was 0.344. For the same molecule, the relative viability (NCI-H1993; first compound 0.04 µM) was 0.922, the relative viability (NCI-H1993; first compound 0.1265 µM) was 0.994 and the relative viability (NCI-H1993; first compound 0.4 µM) was 1.1. It also gave a relative viability (NCI-H1993; first compound 1.265 µM) of 0.807, a relative viability (NCI-H1993; first compound 4 µM) of 0.584 and a relative viability (NCI-H322M; first compound 0.04 µM) of 0.597. For the same molecule, the relative viability (NCI-H322M; first compound 0.1265 µM) was 0.933, the relative viability (NCI-H322M; first compound 0.4 µM) was 0.654 and the relative viability (NCI-H322M; first compound 1.265 µM) was 0.536. It also gave a relative viability (NCI-H322M; first compound 4 µM) of 0.461, a relative viability (EMC-BAC-2; first compound 0.04 µM) of 0.447 and a relative viability (EMC-BAC-2; first compound 0.1265 µM) of 0.433. The relative viability (EMC-BAC-2; first compound 0.4 µM) was 0.391, the relative viability (EMC-BAC-2; first compound 1.265 µM) was 0.32 and the relative viability (EMC-BAC-2; first compound 4 µM) was 0.259. It also gave a relative viability (NCI-H1944; first compound 0.04 µM) of 0.405, a relative viability (NCI-H1944; first compound 0.1265 µM) of 0.391 and a relative viability (NCI-H1944; first compound 0.4 µM) of 0.314. The relative viability (NCI-H1944; first compound 1.265 µM) was 0.232, the relative viability (NCI-H1944; first compound 4 µM) was 0.235 and the relative viability (NCI-H727; first compound 0.04 µM) was 0.668. The relative viability (NCI-H727; first compound 0.1265 µM) was 0.759, the relative viability (NCI-H727; first compound 0.4 µM) was 0.599 and the relative viability (NCI-H727; first compound 1.265 µM) was 0.555. It also gave a relative viability (NCI-H727; first compound 4 µM) of 0.497, a relative viability (NCI-H2009; first compound 0.04 µM) of 0.689 and a relative viability (NCI-H2009; first compound 0.1265 µM) of 0.548. It also gave a relative viability (NCI-H2009; first compound 0.4 µM) of 0.545, a relative viability (NCI-H2009; first compound 1.265 µM) of 0.198 and a relative viability (NCI-H2009; first compound 4 µM) of 0.152. The relative viability (NCI-H2170; first compound 0.04 µM) was 0.614, the relative viability (NCI-H2170; first compound 0.1265 µM) was 0.532 and the relative viability (NCI-H2170; first compound 0.4 µM) was 0.361. It also gave a relative viability (NCI-H2170; first compound 1.265 µM) of 0.226, a relative viability (NCI-H2170; first compound 4 µM) of 0.213 and a relative viability (SW 1573; first compound 0.04 µM) of 0.428. It also gave a relative viability (SW 1573; first compound 0.1265 µM) of 0.317, a relative viability (SW 1573; first compound 0.4 µM) of 0.344 and a relative viability (SW 1573; first compound 1.265 µM) of 0.211. For the same molecule, the relative viability (SW 1573; first compound 4 µM) was 0.178, the relative viability (ABC-1; first compound 0.04 µM) was 0.772 and the relative viability (ABC-1; first compound 0.1265 µM) was 0.575. It also gave a relative viability (ABC-1; first compound 0.4 µM) of 0.744, a relative viability (ABC-1; first compound 1.265 µM) of 0.748 and a relative viability (ABC-1; first compound 4 µM) of 0.385. The relative viability (NCI-H1792; first compound 0.04 µM) was 0.378, the relative viability (NCI-H1792; first compound 0.1265 µM) was 0.266 and the relative viability (NCI-H1792; first compound 0.4 µM) was 0.392. For the same molecule, the relative viability (NCI-H1792; first compound 1.265 µM) was 0.139 and the relative viability (NCI-H1792; first compound 4 µM) was 0.0406.
